Holding throughout (assay): inhibition of tumour cell growth, NCI panel, 48 h
Test [1] concerns M14 melanoma.
The subject of test [2] is LOX IMVI melanoma.
For test [3], the system named is COLO 205 colon.
Test [4] concerns HT29 colon.
Test [5] has as its system SF-268 CNS.
The test system of test [6] is PC-3 prostate.
The subject of test [7] is SK-MEL-28 melanoma.
The test system of test [8] is SNB-19 CNS.
The subject of test [9] is IGROV1 ovarian.
In test [10] the test system is HOP-92 NSCLC.

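Five concentrations, 48 hours, 96-well plates. The concentration for 50% growth inhibition is given as GI50. TGI: total growth inhibition.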

Take `COc1ccc(C2=C(c3cn(C)c4ccccc34)C(=O)NC2=O)cc1OC`: the GI50 is 6.83 µM in [1]; 8.12 µM in [2]; 5.57 µM in [3]; 6.78 µM in [4]; 8.85 µM in [5]; 7.29 µM in test [6]. For the same molecule, the GI50 in test [7] is 16.8 µM; in test [8] it was greater than 25 µM; in test [9], 7.99 µM; in test [10], greater than 12.4 µM. Further, the TGI is greater than 25 µM in [1]; greater than 25 µM in test [2]; greater than 20.3 µM in test [3]; greater than 25 µM in test [4]; greater than 25 µM in test [5]; greater than 25 µM in test [6]. For the same molecule, the TGI in test [7], in test [8], in test [9] and in test [10] was greater than 25 µM in each case.

For `CCOC(=O)C(Cc1c[nH]c2cc([N+](=O)[O-])ccc12)(NC(C)=O)C(=O)OCC`, the GI50 in test [1] was greater than 931 µM; in test [2], greater than 766 µM; in test [3], greater than 1000 µM; in [4], greater than 1000 µM; in [5] it was 95.1 µM; in test [7], greater than 1000 µM. Moreover, the GI50 was 148 µM in test [8], 176 µM in test [9] and 47.5 µM in test [10]. Besides, the TGI in [2], in test [3], in [4], in test [5], in test [6] and in test [7] was greater than 1000 µM each time. In addition, the TGI in test [8] is greater than 824 µM; in test [9], greater than 1000 µM; in [10], 141 µM.

Take `CN1CCN(Cc2ccc(NC(=O)c3[nH]ncc3Nc3ncnc4c3CCC4)cc2)CC1`: the GI50 is 0.948 µM in [1]; 0.817 µM in test [2]; 0.475 µM in test [3]; 2.17 µM in [4]; 2.14 µM in [5]; 1.96 µM in [6]. Besides, the GI50 in [7] is 2.61 µM; in test [8], 2.87 µM; in [9], 1.45 µM; in test [10] it was 4.43 µM. In addition, the TGI in [1] is 13.4 µM; in test [2], 3.1 µM; in test [3] it was 2.25 µM; in [4], 8.79 µM; in [5] it was 7.78 µM; in test [6], 12.1 µM. Further, the TGI amounted to 13.1 µM in test [7], 14.8 µM in test [8], 14.6 µM in test [9] and 8.33 µM in test [10].

With `CN(C)CC#Cc1cccc(C(=O)c2cnn(-c3ccc(F)cc3)c2N)c1`, the GI50 was greater than 25 µM in [1]; greater than 25 µM in [2]; greater than 25 µM in test [3]; greater than 19.5 µM in test [4]; greater than 25 µM in test [5]; greater than 25 µM in test [6]. Moreover, the GI50 in test [7] was greater than 25 µM; in test [8] it was greater than 25 µM; in test [9], greater than 21.1 µM; in [10], greater than 17.7 µM. Also, the TGI in test [1], in [2], in test [3], in [4], in [5] and in [6] was greater than 25 µM throughout. The TGI in test [7], in test [8], in test [9] and in test [10] was greater than 25 µM throughout.

As to `CCOc1cc2ncc(C#N)c(Nc3ccc(F)c(Cl)c3)c2cc1NC(=O)/C=C/CN(C)C`, the GI50 in test [1] is 0.312 µM; in test [2] it was 0.761 µM; in [3], 1.33 µM; in [4] it was 0.827 µM; in [5] it was 0.265 µM; in [6] it was 1.19 µM. Besides, the GI50 in test [7] is 1.08 µM; in test [8] it was 1.61 µM; in test [9] it was 0.0269 µM; in [10], 0.254 µM. The TGI in test [1] is 1.83 µM; in test [2], 2.14 µM; in test [3] it was 2.83 µM; in [4], greater than 5.95 µM; in test [5] it was greater than 6.99 µM; in test [6] it was greater than 9 µM. Further, the TGI is greater than 4.73 µM in test [7], greater than 10 µM in [8], 0.466 µM in test [9] and greater than 4.39 µM in test [10].

For the molecule `CCc1oc2ccccc2c1C(=O)c1cc(Br)c(O)c(Br)c1`, the TGI in [1] came to 80.6 µM; in test [2], 55.3 µM; in test [3], 40.6 µM; in [4] it was 74.7 µM; in test [5] it was 84.7 µM; in [6] it was 43.6 µM. The TGI in test [7] was greater than 100 µM; in [8], greater than 100 µM; in test [9], greater than 100 µM; in test [10], 64.2 µM.

For the molecule `COc1ccc(C(=O)c2cc(OC)c(OC)c(OC)c2)cc1O`, the GI50 in test [1] is less than 0.01 µM; in test [2], 0.0114 µM; in test [3], 1.36 µM; in test [4] it was 1.96 µM; in [5], 0.0613 µM; in test [6] it was 0.0285 µM. Further, the GI50 in test [7] was greater than 80.8 µM; in test [8] it was 0.268 µM; in [9] it was 0.278 µM; in [10], 0.539 µM. The TGI is greater than 100 µM in [1]; greater than 100 µM in test [2]; 13.3 µM in test [3]; greater than 49.5 µM in [4]; greater than 100 µM in test [5]; greater than 100 µM in [6]. Further, the TGI in [7], in test [8], in test [9] and in test [10] was greater than 100 µM throughout.

As to `Cc1cc(-c2nc3ccc(O)cc3s2)ccc1N`, the GI50 is 33.1 µM in test [1]; greater than 100 µM in test [2]; greater than 100 µM in test [3]; 37.5 µM in test [4]; 35.6 µM in test [5]; 50.2 µM in test [6]. The GI50 is 64.9 µM in [7], 46 µM in test [8], 47.5 µM in test [9] and greater than 100 µM in [10]. The TGI in [1], in [2], in [3], in test [4], in [5] and in [6] was greater than 100 µM in each case. In addition, the TGI in test [7], in [8], in test [9] and in test [10] was greater than 100 µM each time.

As for `CC(=O)Oc1cccc2c1C(=O)C(Br)(Br)CCC2`, the TGI in test [1] was determined as 8.67 µM; in test [2], 6.26 µM; in [3], 17.2 µM; in test [4], 14 µM; in test [5], 42.7 µM; in test [6], 16 µM. Besides, the TGI in [7] was determined as 25.7 µM; in [8], 25.2 µM; in [9], 30.6 µM; in [10], 10.4 µM.

For the origin of these results see PubChem BioAssay (NCI).
